Biological target: T1, gp16 (eGFP-gp16) (Bacillus phage phi29, UniProt P11014)
T1 sequence (P11014 1-332): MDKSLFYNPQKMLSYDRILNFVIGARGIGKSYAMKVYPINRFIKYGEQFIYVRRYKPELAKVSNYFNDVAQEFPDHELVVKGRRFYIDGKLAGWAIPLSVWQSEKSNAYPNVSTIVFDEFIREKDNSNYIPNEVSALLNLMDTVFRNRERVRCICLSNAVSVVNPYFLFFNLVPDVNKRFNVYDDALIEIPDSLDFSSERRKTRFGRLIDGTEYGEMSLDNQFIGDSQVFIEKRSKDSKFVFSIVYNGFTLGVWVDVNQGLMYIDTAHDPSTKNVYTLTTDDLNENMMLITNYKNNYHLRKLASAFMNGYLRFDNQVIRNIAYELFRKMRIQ
Test: EMSA, release of dsDNA from gp16/dsDNA/γ-S-ATP complex
Format: binding
Details: γ-S-ATP present, Cy3-dsDNA; indirect read-out of nucleotide action

Nc1ncnc2c1ncn2[C@@H]1O[C@H](COP(=O)(O)OP(=O)(O)O)[C@@H](O)[C@H]1O [ADP]
EMSA, release of dsDNA from gp16/dsDNA/γ-S-ATP complex: ADP also stimulated the release of gp16 from the gp16/dsDNA complex
